Article PMC5983823, “Screening of Natural Product Derivatives Identifies Two Structurally Related Flavonoids as Potent Quorum Sensing Inhibitors against Gram-Negative Bacteria” (International Journal of Molecular Sciences, 2018)
Read-outs that look alike come from different tables or passages of the source.

Tests used:
C. violaceum ATCC 31532 [1] = experiment: Violacein extraction assay (QS-mediated violacein production); format: cell-based; conditions: Chromobacterium violaceum
C. violaceum ATCC 31532 [2] = experiment: as above; format: cell-based, Chromobacterium violaceum; conditions: for inhibition at 400 µM: ATCC31532, 24 h, read-out: Inhibition-% of violacein production
Method: (§1) The initial screening of compound library was conducted using two strains of C. violaceum as model bacterium, and two assays (violacein extraction and resazurin staining) in parallel as recently optimized in [26]. For the screening assays, overnight cultures of C. violaceum were diluted in LB broth supplemented with yeast extract (LBY) (0.1% w/v, Sigma Aldrich, St. Louis, MO, USA). Culture of C. violaceum CV026 was further supplemented with 0.5 µM N-(β-ketocaproyl)-L-Homoserine lactone (3-O-C6-(L)-HSL, Cayman chemicals, Ann Arbor, MI, USA) to induce the violacein production. Bacteria (10^6 CFU/mL) was exposed to compounds (400 µM) in a total volume of 200 µL in 96-microtiter well plates (Nunc, Roskilde, Denmark), and incubated at 27 °C, with shaking at 200 rpm for 24 h. DMSO was added in untreated control wells and bacteria-free wells with only LBY were included controls. Additionally, autoinducer-free wells containing only bacteria were included in C. violaceum CV026 plates. Plates were prepared in duplicates. Quercetin dihydrate (Carl Roth GmbH, Karlsruhe, Germany) at 400 µM was used as positive control in violacein extraction assay, and azithromycin (Cayman chemicals, Ann Arbor, MI, USA) at 10 µM in viability assay. Both control compounds were prepared in DMSO. DMSO concentration was 2.5% throughout the experiments.
(§2) After incubation period of 24 h, plates were centrifuged (Allegra™ X-12R Benchtop centrifuge, Beckman Coulter Inc., Fullerton, CA, USA) at 3000 rpm for 10 min to precipitate the violacein. Supernatants were discarded from the wells by pipetting, and pellets were re-suspended in 200 μL of 96% ethanol by scraping and mixing followed by centrifugation (3000 rpm, 10 min). Thereafter, 100 μL of supernatants were transferred to sterile 96-microtiter well plates, and violacein was quantified by reading the optical density at 595 nm using Varioskan Flash. Inhibition of violacein production was expressed as inhibition percentages of the untreated biofilms (Equation (1)):Inhibition-% = [(untreated control OD595 − sample OD595)/(untreated control OD595 − media control OD595)] × 100%(1) in which untreated control = C. violaceum + DMSO, media control = LBY, and sample = C. violaceum treated with a compound. Later on, violacein extraction assay was also utilized for the determination of half inhibitory concentrations of the compounds.

C. violaceum CV026 = experiment: Violacein extraction assay (QS-mediated violacein production), mutant strain with exogenous autoinducer; format: cell-based, Chromobacterium violaceum; conditions: for inhibition at 400 µM: Chromobacterium violaceum, CV026, 24 h, read-out: Inhibition-% of violacein production
Method: as §1, §2

cancer cell lines = tested on: cancer cell lines; design: method as in ref 56 = [56]; 56. National Center for Biotechnology Information PubChem BioAssay Database Available online: https://pubchem.ncbi.nlm.nih.gov/bioassay/924 (accessed on 28 March 2018); conditions: PubChem Bioassay database ref 56; cited from earlier work
[3] = tested on: mouse monocyte macrophage (RAW 264.7) cells; experiment: Cytotoxicity testing (CellTiter Glo); format: cell-based; conditions: 200 µM, 24 h exposure, positive control
Method: (§3) Human lung (HL) epithelial cells were grown in RPMI 1640 (Biowhittaker, Lonza, Viewers, Bornem, Belgium) supplemented with 10% inactivated fetal bovine serum (FBS), 2 mM L-glutamine and gentamycin 20 µg/mL, and mouse monocyte macrophage RAW 264.7 cells in DMEM medium supplemented with 10% FBS and 20 µg/mL gentamycin. Cells (3 × 10^5 cells/mL) were seeded into 96-microtiter well plates (Cellstar TC, Greiner Bio-One GmbH, Frickenhausen, Germany), 200 µL per well, and incubated at 37 °C in 5% CO2 24 h before exposure to the compounds. After the incubation, culture medium was discarded, the wells were washed with PBS, and the compound dilutions prepared in culture media were added as triplicates to a final volume of 200 µL. Usnic acid (200 µM, Sigma Aldrich, St. Louis, MO, USA) was included as positive control and DMSO (1%) as solvent control. Plates were incubated for additional 24 h. At the end of 24 h, media was removed, wells were washed twice with PBS and 100 µL of PBS was added. CellTiter Glo® reagent (Promega, Madison, WI, USA) was prepared according to manufacturer’s instructions, and 100 µL was added to the wells. The plates were shaken for two minutes and equilibrated at room temperature for 10 min prior to measuring the luminescence using Varioskan LUX multimode plate reader (Thermo Scientific, Vantaa, Finland). Inhibition of cell viability was calculated in relation to the untreated cells.

[4] = tested on: human lung (HL) epithelial cells; experiment: Cytotoxicity testing (CellTiter Glo); format: cell-based; conditions: 200 µM, 24 h exposure, positive control
Method: as §3

[5] = ATCC31532, read-out: Inhibition-% of violacein production
[6] = Chromobacterium violaceum, primary screening, 400 µM, 24 h, C. violaceum ATCC 31532
[7] = ATCC31532, 40 µM, C. violaceum ATCC 31532, mean ± SD of three independent tests, read-out: Inhibition-% of violacein production

O=c1c(O)c(-c2ccc(O)c(O)c2)oc2cc(O)cc(O)c12 [Que, quercetin, reference compound] gave an inhibition at 40 µM (C. violaceum ATCC 31532 [1]; [5]) of 91.8 ± 2.3%, an inhibition at 400 µM (C. violaceum ATCC 31532 [2]; Chromobacterium violaceum) of 99.7% and an IC50 (C. violaceum ATCC 31532 [2]; Chromobacterium violaceum, ATCC31532, read-out: IC50 of violacein production) of 3.1 µM. The inhibition at 400 µM (C. violaceum CV026) was 98.9%.

With CCN(CC)C(=O)c1cc(=O)n(CC(=O)Nc2c(C)cc(C)cc2C)c2ccccc12 [Compound 1406, 2-[4-(N,N-diethylcarbamoyl)-2-oxohydroquinolyl]-N-(2,4,6-trimethylphenyl)acetamide] the inhibition at 400 µM (C. violaceum ATCC 31532 [2]; [6]) was 40% and the inhibition at 400 µM (C. violaceum CV026) was 93.3%.

With Nc1ccn(C2OC(CO)C3OP(=O)(O)OC32)c(=O)n1 (stereo not drawn) [Compound 144, 8-(4-amino-2-oxohydropyrimidinyl)-3-hydroxy-6-(hydroxymethyl)-2,4,7-trioxa-3-phosphabicyclo[3.3.0]octan-3-one] the inhibition at 40 µM (C. violaceum ATCC 31532 [1]; [7]) was 0%, the inhibition at 400 µM (C. violaceum ATCC 31532 [2]; [6]) was 94.7% and the inhibition at 400 µM (C. violaceum CV026) was 97.2%.

In the case of O=c1cc(C(Cl)(Cl)Cl)oc2ccccc12 [Compound 2712, 2-(trichloromethyl)chromen-4-one], the inhibition at 400 µM (C. violaceum CV026) is reported as 106%.

CC(C)COc1ccc(C(=O)N/C(=C\c2ccccc2)C(=O)NCCNC(=O)/C(=C\c2ccccc2)NC(=O)c2ccc(OCC(C)C)cc2)cc1 [Compound 2, (2E)-N-[2-((2Z)-2-{[4-(2-methylpropoxy)phenyl]carbonylamino}-3-phenylprop-2-enoylamino)ethyl]-2-{[4-(2-methylpropoxy)phenyl]carbonylamino}-3-phenylprop-2-en amide] gave an inhibition at 400 µM (C. violaceum ATCC 31532 [2]; [6]) of 19%.

In the case of O=C(CSc1nc2c(=O)[nH]cnc2n1CC1CCCO1)Nc1ccc(F)c(Cl)c1 (stereo not drawn) [Compound 1905, N-(3-chloro-4-fluorophenyl)-2-[6-oxo-9-(oxolan-2-ylmethyl)hydropurin-8-ylthio] acetamide], the inhibition at 400 µM (C. violaceum ATCC 31532 [2]; [6]) is reported as 4.7% and the inhibition at 400 µM (C. violaceum CV026) is reported as 107%.

With Cc1sc(N)nc1-c1c[nH]c2ccccc12 [Compound 2307, 4-indol-3-yl-5-methyl-1,3-thiazole-2-ylamine] the inhibition at 40 µM (C. violaceum ATCC 31532 [1]; [7]) was 76.1 ± 3.3%, the inhibition at 400 µM (C. violaceum ATCC 31532 [2]; [6]) was 98.8% and the inhibition at 400 µM (C. violaceum CV026) was 98.6%.

O=C(NCCCCCCNC(=O)/C(=C\c1ccccc1)NC(=O)c1ccccc1)/C(=C/c1ccccc1)NC(=O)c1ccccc1 [Compound 3, (2E)-N-{6-[(2Z)-3-phenyl-2-(phenylcarbonylamino)prop-2-enoylamino]hexyl}-3-phenyl-2-(phenylcarbonylamino)prop-2-enamide] gave an inhibition at 400 µM (C. violaceum ATCC 31532 [2]; [6]) of 41% and an inhibition at 400 µM (C. violaceum CV026) of 41.3%.

With Cc1ccc2c(C)c(-c3ccc(Cl)cc3)c(=O)oc2c1 [Compound 1352] the inhibition at 400 µM (C. violaceum ATCC 31532 [2]; [6]) was 18.8% and the inhibition at 400 µM (C. violaceum CV026) was 99.6%.

In the case of O=c1c(O)c(-c2cccnc2)oc2ccc(Cl)cc12 [Compound 575, 6-chloro-3-hydroxy-2-(3-pyridyl)chromen-4-one], the inhibition at 40 µM (C. violaceum ATCC 31532 [1]; [7]) is listed as 60.9 ± 4.1%, the inhibition at 400 µM (C. violaceum ATCC 31532 [2]; [6]) is listed as 94.1% and the Anti-cancer activity (cancer cell lines) is listed as “not active”. The inhibition at 400 µM (C. violaceum CV026) was 94.3%.

Work on COc1ccc(/C=C/C(=O)c2ccc(O)cc2C)cc1 [Compound 2372, (2E)-1-(4-hydroxy-2-methylphenyl)-3-(4-methoxyphenyl)prop-2-en-1-one] yielded an inhibition at 400 µM (C. violaceum ATCC 31532 [2]; [6]) of 18.3% and an inhibition at 400 µM (C. violaceum CV026) of 91.1%.

In the case of CC(=O)c1c(O)c(C)c(O)c2c1OC1=CC(=O)C(C(C)=O)C(=O)C12C (stereo not drawn) [Usnic acid, reference compound], the “Inhibition-% of cell viability” value [3] is reported as 98.5 ± 0.6% and the “Inhibition-% of cell viability” value [4] is reported as 90.0 ± 4.7%.

C=C(CBr)C1Cc2c(ccc3c2OC2COc4cc(OC)c(OC)cc4C2C3=O)O1 (stereo not drawn) [Compound 341, 2-[1-(bromomethyl)vinyl]-8,9-dimethoxy-1,2-dihydrochromano[3,4-b]furano[2,3-h]chroman-6-one] showed an inhibition at 40 µM (C. violaceum ATCC 31532 [1]; [5]) of 26.9 ± 7.7%, an inhibition at 400 µM (C. violaceum ATCC 31532 [2]; Chromobacterium violaceum) of 93.4% and an inhibition at 400 µM (C. violaceum CV026) of 95.2%.

COc1cc([C@H]2OC[C@@H]3C(c4ccc(OC5OC(COC6OC(C)C(O)C(O)C6O)C(O)C(O)C5O)c(OC)c4)OC[C@H]23)ccc1O (stereo partly drawn) [Compound 1698, 2-[(6-{4-[(6S,1R,5R)-6-(4-hydroxy-3-methoxyphenyl)-3,7-dioxabicyclo[3.3.0]oct-2-yl]-2-methoxyphenoxy}-3,4,5-trihydroxy(2H-3,4,5,6-tetrahydropyran-2-yl))methoxy]-6-methyl-2H-3,4,5,6-tetrahydropyran-3,4,5-triol] gave an inhibition at 40 µM (C. violaceum ATCC 31532 [1]; [7]) of 2.6 ± 4.6%, an inhibition at 400 µM (C. violaceum ATCC 31532 [2]; [6]) of 91.3% and an inhibition at 400 µM (C. violaceum CV026) of 96.1%.

Molecule NC(=O)CC1CCCCN1 (stereo not drawn) [Compound 2584, 2-(2-piperidyl)acetamide] has an inhibition at 400 µM (C. violaceum ATCC 31532 [2]; [6]) of 20.5% and an inhibition at 400 µM (C. violaceum CV026) of 106%.

For CCn1cnc2cc(NC(=O)c3cc(OC)c(OC)c(OC)c3)ccc2c1=O [Compound 1508, N-(3-ethyl-4-oxo(3-hydroquinazolin-7-yl))(3,4,5-trimethoxyphenyl)carboxamide], the inhibition at 400 µM (C. violaceum CV026) was 93.4%.

Work on COc1ccccc1-c1c(C(F)(F)F)oc2cc(OC(=O)c3ccccc3F)ccc2c1=O [Compound 2909, 3-(2-methoxyphenyl)-4-oxo-2-(trifluoromethyl)chromen-7-yl 2-fluorobenzoate] yielded an inhibition at 400 µM (C. violaceum ATCC 31532 [2]; [6]) of 12.1% and an inhibition at 400 µM (C. violaceum CV026) of 99.9%.

O=C(CCc1cccc(F)c1)NC(CO)C(O)c1ccccc1 (stereo not drawn) [Compound 2916, 3-(3-fluorophenyl)-N-[2-hydroxy-1-(hydroxymethyl)-2-phenylethyl]propanamide] showed an inhibition at 400 µM (C. violaceum ATCC 31532 [2]; [6]) of 19.7% and an inhibition at 400 µM (C. violaceum CV026) of 98.3%.

For COc1ccc2c(c1)c(CC(=O)NCCCN1CCCCC1)c(C)n2C(=O)c1ccc(Cl)cc1 [Compound 712, 2-{1-[(4-chlorophenyl)carbonyl]-5-methoxy-2-methylindol-3-yl}-N-(3-piperidylpropyl)acetamide], the inhibition at 400 µM (C. violaceum CV026) was 94.3%.

With Cc1cc(C(=O)NC(Cc2ccccc2)C(=O)O)c(C)o1 (stereo not drawn) [Compound 1214, 2-[(2,5-dimethyl(3-furyl))carbonylamino]-3-phenylpropanoic acid] the inhibition at 400 µM (C. violaceum CV026) was 103%.

For CCOc1ccc(C2NCCc3c2[nH]c2ccccc32)cc1 (stereo not drawn) [Compound 2666, 4-ethoxy-1-(1,2,3,4-tetrahydrobeta-carbolinyl)benzene], the inhibition at 400 µM (C. violaceum CV026) was 90.8%.

In the case of CCOc1ccc2oc(=O)cc(CN3CCNCC3)c2c1 [Compound 1852, 6-ethoxy-4-(piperazinylmethyl)chromen-2-one], the inhibition at 400 µM (C. violaceum ATCC 31532 [2]; [6]) is reported as 29.7% and the inhibition at 400 µM (C. violaceum CV026) is reported as 95.2%.

In the case of C1COCCN1.COC(=O)C1=C(C)NC(S)=C(C#N)C1c1cc(OC)c(OC)c(OC)c1 (stereo not drawn) [Compound 1016, methyl 5-cyano-2-methyl-6-sulfanyl-4-(3,4,5-trimethoxyphenyl)-1,4-dihydropyridine-3-carboxylate, morpholine], the “Inhibition-% of violacein production” value (C. violaceum ATCC 31532 [2]; primary screening, 400 µM, 24 h, C. violaceum ATCC 31532) is reported as 34.1% and the “Inhibition-% of violacein production” value (C. violaceum CV026; primary screening, 400 µM, 24 h, C. violaceum CV026) is reported as 97.5%.
